{
  "source": "patent US20090215710A1",
  "about": "“CARBOHYDRATE BASED TOLL-LIKE RECEPTOR (TLR) ANTAGONISTS” (RELIANCE LIFE SCIENCES PVT. LTD., priority 2007, published 2009)",
  "key": {"[1]": {"biological_target": "T1, TLR2 (Homo sapiens, UniProt O60603)", "T1 construct": "endogenous in cells; host or cells: THP-1 monocytes and PBMCs", "T1 sequence (O60603 21-784)": "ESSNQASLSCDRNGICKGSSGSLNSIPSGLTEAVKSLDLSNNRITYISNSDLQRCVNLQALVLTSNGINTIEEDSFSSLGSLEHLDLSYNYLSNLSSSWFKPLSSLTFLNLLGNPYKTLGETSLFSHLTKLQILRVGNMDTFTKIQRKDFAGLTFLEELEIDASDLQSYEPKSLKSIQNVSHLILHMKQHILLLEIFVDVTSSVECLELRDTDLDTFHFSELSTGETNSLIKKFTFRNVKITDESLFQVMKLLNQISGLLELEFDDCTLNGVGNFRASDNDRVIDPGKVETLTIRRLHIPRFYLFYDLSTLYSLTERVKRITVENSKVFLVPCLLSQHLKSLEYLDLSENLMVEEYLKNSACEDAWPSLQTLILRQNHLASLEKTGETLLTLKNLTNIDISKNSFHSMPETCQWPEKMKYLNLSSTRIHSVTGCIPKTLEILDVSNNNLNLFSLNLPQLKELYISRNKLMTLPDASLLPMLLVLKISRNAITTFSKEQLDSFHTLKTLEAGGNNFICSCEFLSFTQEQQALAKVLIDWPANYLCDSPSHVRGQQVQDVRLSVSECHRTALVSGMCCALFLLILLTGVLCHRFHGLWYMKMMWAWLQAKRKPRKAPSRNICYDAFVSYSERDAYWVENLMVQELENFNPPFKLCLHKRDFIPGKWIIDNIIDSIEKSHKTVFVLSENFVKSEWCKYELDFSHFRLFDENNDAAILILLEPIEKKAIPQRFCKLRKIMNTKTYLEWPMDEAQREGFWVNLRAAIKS", "assay": "TLR2 ligand induced TNF-α secretion in THP-1 cells and PBMCs (ELISA)", "assay_type": "cell-based", "conditions": "TLR2 ligand 75 ng/ml, 1 hr pre-treatment, 24 hrs", "method": "(§1) The present invention has checked the effect of various TLR ligands on THP-1 monocytes, PBMCs and their ability to activate and release TNF-α. For this purpose about 9 TLR ligands were used. These ligands were obtained from Apotech Cat; APO-54N-018-K100 and assayed for TNF-α release in culture supernatants.\n(§2) THP-1 and PBMCs (2×10^5 cells/well) were plated in 96-well plate. The cells were pretreated with RSCL-0409 in DMSO 1 hr prior to TLR ligand treatment. Following 1 hr pre-treatment, the cells were treated with TLR ligands [TLR2, TLR5 and TLR6-75 ng/ml each, TLR3-75 μg/ml, TLR4-750 ng/ml, TLR7, TLR8 and TLR9-7.5 μg/ml) for 24 hrs. The culture supernatant were collected after the stipulated time and assayed for TNF-α release using a Duoset Enzyme-Linked ImmunoSorbent Assay (ELISA) detection Kit (R&D systems, MN 55413, USA; Cat: DY-210 E). Simultaneously supernatants were collected from cells treated with ligands without pre-treatment with RSCL-0409 and only RSCL-0409 without ligand treatment."}, "[2]": {"biological_target": "T2, TLR4 (Homo sapiens, UniProt O00206)", "T2 construct": "endogenous in cells; host or cells: THP-1 monocytes and PBMCs", "T2 sequence (O00206 24-839)": "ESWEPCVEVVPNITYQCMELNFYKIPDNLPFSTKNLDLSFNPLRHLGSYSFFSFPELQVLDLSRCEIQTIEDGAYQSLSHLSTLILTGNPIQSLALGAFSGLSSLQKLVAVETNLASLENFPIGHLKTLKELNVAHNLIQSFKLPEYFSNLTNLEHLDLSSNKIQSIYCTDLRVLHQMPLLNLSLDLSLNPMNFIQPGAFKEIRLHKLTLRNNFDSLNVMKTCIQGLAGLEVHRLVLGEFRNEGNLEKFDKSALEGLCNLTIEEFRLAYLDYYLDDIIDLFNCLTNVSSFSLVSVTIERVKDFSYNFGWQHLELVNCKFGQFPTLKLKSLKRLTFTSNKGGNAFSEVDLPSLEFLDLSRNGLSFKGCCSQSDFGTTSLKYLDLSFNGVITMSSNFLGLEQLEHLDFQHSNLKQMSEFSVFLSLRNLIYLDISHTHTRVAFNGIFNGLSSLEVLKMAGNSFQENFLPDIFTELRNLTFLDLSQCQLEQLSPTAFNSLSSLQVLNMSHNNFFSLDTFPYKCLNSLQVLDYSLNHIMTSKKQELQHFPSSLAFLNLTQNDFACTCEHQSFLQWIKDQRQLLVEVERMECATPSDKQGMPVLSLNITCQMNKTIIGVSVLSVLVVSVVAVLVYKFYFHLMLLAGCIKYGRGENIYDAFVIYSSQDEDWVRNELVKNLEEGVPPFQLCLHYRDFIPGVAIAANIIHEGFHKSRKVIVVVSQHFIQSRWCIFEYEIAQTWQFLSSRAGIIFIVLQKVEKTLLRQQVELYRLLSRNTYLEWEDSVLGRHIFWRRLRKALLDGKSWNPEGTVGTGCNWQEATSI", "T2 sequence (Q9Y6Y9 17-160 partner limits assumed)": "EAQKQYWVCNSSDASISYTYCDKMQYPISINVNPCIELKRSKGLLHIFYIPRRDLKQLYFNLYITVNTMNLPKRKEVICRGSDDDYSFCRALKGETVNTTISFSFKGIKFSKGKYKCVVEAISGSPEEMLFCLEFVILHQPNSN", "assay": "TLR4 ligand induced TNF-α secretion in THP-1 cells and PBMCs (ELISA)", "assay_type": "cell-based", "conditions": "TLR4 ligand 750 ng/ml, 1 hr pre-treatment, 24 hrs", "method": "as §1, §2"}, "[3]": {"tested_on": "THP-1 cells", "assay": "MTT toxicity assay in THP-1 cells", "assay_type": "cell-based, human", "source_text": "The toxicity of RSCL-0409 (FIG. 2b) was also by treating cells with RSCL-0409 by MTT assay. […] The viability of the cells (analyzed in tandem by MTT) was not affected by RSCL-0409 indicating its non-toxic nature."}, "[4]": {"tested_on": "TNF-α", "assay": "LPS induced TNF-α release in human PBMC", "assay_type": "cell-based", "conditions": "PBMC isolated from human blood", "source_text": "In order to evaluate the ability of RSCL-0409 to inhibit LPS induced TNF-α secretion in a physiological scenario, the present invention has tested the same in PBMC isolated from human blood (FIG. 3). […] The TNF levels were not detectable in PBMCs without LPS and with RSCL-0409 treatment alone, indicating its specificity in LPS induced TNF-α through a TLR mediated process. ***P<0.001 value is for LPS treated vs. RSCL-0409 treated."}, "[5]": {"tested_on": "NEMO and IκB-α", "assay": "Immunoblot of NEMO and IκB-α in LPS stimulated THP-1 cells", "assay_type": "cell-based, human", "conditions": "THP-1, LPS 250 ng/ml", "method": "NF-κB/IκB complexes are present in the cytoplasm under unstimulated conditions. Following stimulation with LPS, we see phosphorylation and subsequent degradation of IκB allowing the free NF-κB to translocate into the nucleus to activate genes with NF-κB binding regions. Therefore, the effect of RSCL-0409 on blocking of NF-κB nuclear translocation was checked. Serum-starved THP-1 cells were stimulated with LPS (250 ng/ml) for the indicated time (FIG. 7a) in the presence and absence of RSCL-0409 ([…]). RSCL-0409 treatment was 1 hr prior to LPS treatment. Total protein was isolated from the treated cells, and an equal amount of protein from each sample was used for immunoblots to determine protein levels of NEMO and IκB-α. The blot was stripped and reprobed with an anti-ERK-1/2 antibody to ensure equal loading. […] This leads to inhibition of phosphorylation and further blocking p65 dissociation from IκB-α."}, "[6]": {"tested_on": "NF-κB", "assay": "NF-κB activation and nuclear translocation in LPS stimulated THP-1 cells (FACS phospho p65, immunoblot)", "assay_type": "cell-based, human", "method": "Further, for the detection of intracellular location of phospho NF-κB p65 subunits, 1 hr LPS-stimulated cells with and without pretreatment of RSCL-0409 (50 μM—FIG. 7b) were fixed with 4% paraformaldehyde in PBS for 30 min and washed with Fluorescence-activated cell sorting (FACS) buffer [2% Fetal calm serum (FCS) in 1× Phosphate buffered saline (PBS)]. Permeabilisation is done using 90% methanol. These cells were then treated with phospho p65 monoclonal antibody tagged with Alexa Fluor 488 (Cell Signaling Technology, Inc, Ma, USA) for 1 hr at 37° C., followed by washing FACS buffer. Cells were then resuspended in PBS and acquired in BD FACS Calibur.\nThe nuclear fractions were obtained from LPS stimulated THP-1 cells at the indicated times (FIG. 7c). Nuclear proteins electrophoresed were processed for immunoblots using a NF-κB specific antibody."}, "[7]": {"tested_on": "TIRAP and MyD88", "assay": "Protein levels of TIRAP and MyD88 in LPS stimulated THP-1 cells (immunoblot)", "assay_type": "cell-based, human", "conditions": "THP-1, LPS 250 ng/ml, 1 hr pre-treatment", "method": "Further confirmation was obtained at the protein level. Serum-starved THP-1 cells were stimulated with LPS (250 ng/ml) for the indicated time in the presence and absence of RSCL-0409. RSCL-0409 treatment was 1 hr prior to LPS treatment. Immunoblotting of total protein was carried out as before to determine protein levels of TIRAP and MyD88."}, "[8]": {"tested_on": "Balb/c mice", "assay": "LPS induced TNF-α release in Balb/c mice, pre-treatment", "assay_type": "in vivo", "conditions": "1 hr post LPS", "method": "The present invention has studied the ability of RSCL-0409 to exert protection against inflammatory agents in a mice (Balb/c) model. Balb/c (5-6 weeks) mice were injected with LPS (225 μg) intraperitoneally with and without pretreatment of three concentrations of RSCL-0409 (10 mg/kg, 20 mg/kg and 40 mg/kg). The compound was injected intraperitoneally 30 min before LPS treatment. The mice were monitored for 1 hr post LPS treatment. RSCL-0409 injected alone served as negative control. Blood collection was done retro-orbitally under anesthesia, 1 hr post LPS injection. Serum collected after cells were allowed to settle was analysed for TNF-α secretion."}},
  "data": [
    {"molecule": "COc1ccc(OC2OC3COC(c4ccccc4)OC3C(OC3OC(COC(=O)CCC(C)=O)C(OC(=O)CCl)C(OC(C)=O)C3OC(C)=O)C2NC(=O)C(Cl)(Cl)Cl)cc1", "note": "[RSCL-0409, p-Methoxy phenyl-O-(2,3-di-O-acetyl-4-O-chloroacetyl-6-O-levulinoyl-β-D-glucopyranosyl)-(1-3)-2-deoxy-2-trichloroacetamido-4,6-O-benzylidene-α-D-glucopyranoside]", "values": [
      {"measurement": "inhibition of TNF-α secretion", "setting": "[1]; PBMC", "value": "~46", "unit": "%"},
      {"measurement": "inhibition of TNF-α secretion", "setting": "[1]; THP-1 cells", "value": "~54", "unit": "%"},
      {"measurement": "inhibition of TNF-α secretion", "setting": "[2]; PBMCs", "value": "~34", "unit": "%"},
      {"measurement": "inhibition of TNF-α secretion", "setting": "[2]; THP-1 cells", "value": "~100", "unit": "%"},
      {"measurement": "viability of the cells (MTT)", "setting": "[3]", "value": "not affected"},
      {"measurement": "LPS induced TNF-α secretion", "setting": "[4]", "value": "inhibitory effects similar to that seen in THP-1 cells"},
      {"measurement": "activation of NEMO", "setting": "[5]", "value": "blocked signaling to NEMO"},
      {"measurement": "degradation of IκB-α", "setting": "[5]", "value": "accumulation of IκB-α"},
      {"measurement": "phospho NF-κB p65 (FACS)", "setting": "[6]; THP-1, 1 hr LPS, 50 μM", "value": "inhibitory role in NF-κB signaling"},
      {"measurement": "translocation of NF-κB to the nucleus", "setting": "[6]; nuclear fractions of LPS stimulated THP-1 cells", "value": "blocked translocation of NF-κB into the nucleus"},
      {"measurement": "protein levels of TIRAP and MyD88", "setting": "[7]", "value": "Down regulation of TIRAP and also MyD88 at protein levels"},
      {"measurement": "reduction of serum TNF production", "setting": "[8]; 10 mg/kg i.p. 30 min before LPS (225 μg i.p.)", "value": "~53", "unit": "%"},
      {"measurement": "reduction of serum TNF production", "setting": "[8]; 20 mg/kg i.p. 30 min before LPS (225 μg i.p.)", "value": "~64", "unit": "%"},
      {"measurement": "reduction of serum TNF production", "setting": "[8]; 40 mg/kg i.p. 30 min before LPS (225 μg i.p.)", "value": "~67", "unit": "%"}
    ]}
  ]
}
